Columns and labels:
[1] = test system: primary human T-cells; assay: T-cell proliferation assay (CellTiter-Glo); assay type: cell-based; conditions: Homo sapiens, T-cell, 120 h, CD3 condition; for Emax: 5 days, 20 μM reference compound A1 = 100%, read-out: Emax proliferation (% activation); for EC50: proliferation after 5 days, CellTiter-Glo, read-out: Tcell Proliferation CD3 EC50
In short: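 Expanded primary human T-cells (100k/well) on plates coated with CD3 antibody or PBS only, given a 5- or 6-point dose response (top 20 or 10 μM final, 3.333-fold steps, 0.2% DMSO). ATP measured by CellTiter-Glo 2.0 luminescence after 5 days. Normalized to DMSO and 20 μM reference A1 (100%); EC50 and Emax reported for CD3 conditions.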

[2] = target: DGKzeta (Homo sapiens, UniProt Q13574); assay: In vitro DGK inhibition assay (ADP-Glo, liposomes), DGKzeta; assay type: biochemical; parameters: hDGKzeta(1-928)-N-His; His (N); made in house; host or cells: Sf21 insect cells (baculovirus); conditions: 2 nM DGK ζ, 50 μM ATP, 125 uM DLG in liposomes, 1 hour reaction
Chain of DGKzeta (Q13574 whole entry): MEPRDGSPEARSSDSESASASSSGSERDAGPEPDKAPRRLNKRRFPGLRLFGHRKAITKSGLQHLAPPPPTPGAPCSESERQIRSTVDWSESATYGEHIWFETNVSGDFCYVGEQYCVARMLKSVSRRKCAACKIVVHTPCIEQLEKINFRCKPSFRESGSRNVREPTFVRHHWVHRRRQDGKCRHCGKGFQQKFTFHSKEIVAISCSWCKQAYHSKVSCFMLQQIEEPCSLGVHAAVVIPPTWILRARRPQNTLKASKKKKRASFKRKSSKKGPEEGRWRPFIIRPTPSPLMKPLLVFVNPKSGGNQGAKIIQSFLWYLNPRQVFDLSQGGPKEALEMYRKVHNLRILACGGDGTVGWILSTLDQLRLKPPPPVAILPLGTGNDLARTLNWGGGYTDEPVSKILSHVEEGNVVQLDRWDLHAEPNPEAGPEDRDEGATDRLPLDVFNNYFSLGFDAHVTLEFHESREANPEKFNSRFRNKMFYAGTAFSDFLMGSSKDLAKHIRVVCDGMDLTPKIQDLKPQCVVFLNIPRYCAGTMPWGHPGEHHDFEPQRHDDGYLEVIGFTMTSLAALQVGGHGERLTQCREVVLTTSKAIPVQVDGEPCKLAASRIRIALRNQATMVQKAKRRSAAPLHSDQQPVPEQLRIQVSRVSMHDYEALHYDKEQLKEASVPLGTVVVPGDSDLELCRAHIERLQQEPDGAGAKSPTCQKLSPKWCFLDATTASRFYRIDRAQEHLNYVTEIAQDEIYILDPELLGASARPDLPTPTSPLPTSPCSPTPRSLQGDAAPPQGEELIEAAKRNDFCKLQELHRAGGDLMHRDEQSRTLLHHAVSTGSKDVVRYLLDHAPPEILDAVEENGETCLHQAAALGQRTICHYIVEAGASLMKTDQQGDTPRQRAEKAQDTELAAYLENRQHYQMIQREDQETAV
In short: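 DGKζ (2 nM) phosphorylated DLG presented in DLG/PS/PC liposomes (final DLG 125 μM) with 50 μM ATP for 1 hour. ADP formed was read by ADP-Glo luminescence. Compounds were tested as 11-point 1:3 dose responses in 2% final DMSO.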

[3] = target: DGKalpha (Homo sapiens, UniProt P23743); assay: In vitro DGK inhibition assay (ADP-Glo, liposomes), DGKalpha; assay type: biochemical; parameters: hDGKalpha(1-735)-N-His; His (N); made in house; host or cells: Sf21 insect cells (baculovirus); conditions: 4 nM DGK α, 25 μM ATP, 125 uM DLG in liposomes, 1 hour reaction
Chain of DGKalpha (P23743 whole entry): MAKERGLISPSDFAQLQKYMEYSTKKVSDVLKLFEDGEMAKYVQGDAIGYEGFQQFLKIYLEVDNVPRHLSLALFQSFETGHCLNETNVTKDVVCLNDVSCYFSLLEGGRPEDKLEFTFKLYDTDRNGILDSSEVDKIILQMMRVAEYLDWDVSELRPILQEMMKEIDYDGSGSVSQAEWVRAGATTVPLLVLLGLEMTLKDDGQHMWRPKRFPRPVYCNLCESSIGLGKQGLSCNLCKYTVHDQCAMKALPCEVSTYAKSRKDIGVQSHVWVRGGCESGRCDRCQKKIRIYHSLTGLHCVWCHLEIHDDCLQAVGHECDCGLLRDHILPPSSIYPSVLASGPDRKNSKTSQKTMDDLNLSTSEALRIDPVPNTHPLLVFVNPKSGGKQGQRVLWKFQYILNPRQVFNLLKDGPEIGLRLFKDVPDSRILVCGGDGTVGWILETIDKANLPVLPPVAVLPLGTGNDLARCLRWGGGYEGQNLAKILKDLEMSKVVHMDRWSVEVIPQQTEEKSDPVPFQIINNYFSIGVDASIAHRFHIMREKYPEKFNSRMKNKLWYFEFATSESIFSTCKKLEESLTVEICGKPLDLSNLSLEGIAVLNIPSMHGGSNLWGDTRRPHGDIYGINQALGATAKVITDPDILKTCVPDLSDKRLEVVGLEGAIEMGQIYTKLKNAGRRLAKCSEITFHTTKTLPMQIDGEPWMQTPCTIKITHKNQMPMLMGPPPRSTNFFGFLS
In short: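 Full-length human DGKα (4 nM) or DGKζ (2 nM) from Sf21 cells, with DLG substrate at 125 uM in PS/PC liposomes and ATP at 25 μM (α) or 50 μM (ζ); 1 h reaction. ADP formed read by ADP-Glo luminescence; compounds 11-point, 1:3 dilutions from 10 mM, 2% DMSO final.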

Structure (SMILES): CC(C)(c1nnc(-c2ccc3c(c2)N(Cc2ccc(Oc4cccc(OC(F)F)c4)cc2)C(=O)[C@@H](N)CS3(=O)=O)o1)S(C)(=O)=O [Example 47, (3R)-3-amino-5-[[4-[3-(difluoromethoxy)phenoxy]phenyl]methyl]-7-[5-(1-methyl-1-methylsulfonyl-ethyl)-1,3,4-oxadiazol-2-yl]-1,1-dioxo-2,3-dihydro-1λ6,5-benzothiazepin-4-one]
- Emax [1]: 156%
- EC50 [1]: 351 nM
- IC50 [2]: 468 nM
- IC50 [3]: 1100 nM

Structure (SMILES): CN(Cc1ccccc1)c1ccc(CN2C(=O)[C@@H](N)CS(=O)(=O)c3ccc(-c4nnc(C(C)(C)S(C)(=O)=O)o4)cc32)cc1 [Example 15, (3R)-3-amino-5-[[4-[benzyl(methyl)amino]phenyl]methyl]-7-[5-(1-methyl-1-methylsulfonyl-ethyl)-1,3,4-oxadiazol-2-yl]-1,1-dioxo-2,3-dihydro-1λ6,5-benzothiazepin-4-one]
- Emax [1]: 85%
- EC50 [1]: 2670 nM
- IC50 [2]: 8030 nM
- IC50 [3]: 274 nM

Structure (SMILES): CC(C)(c1nnc(-c2ccc3c(c2)N(Cc2ccc(OCCC(F)(F)F)cc2)C(=O)[C@@H](N)CS3(=O)=O)o1)S(C)(=O)=O [Example 23, (3R)-3-amino-7-[5-(1-methyl-1-methylsulfonyl-ethyl)-1,3,4-oxadiazol-2-yl]-1,1-dioxo-5-[[4-(3,3,3-trifluoropropoxy)phenyl]methyl]-2,3-dihydro-1λ6,5-benzothiazepin-4-one]
- Emax [1]: 79%
- EC50 [1]: 4540 nM
- IC50 [2]: 1260 nM
- IC50 [3]: 3080 nM

Structure (SMILES): COCC(C)(C)Oc1ccc(CN2C(=O)[C@@H](N)CS(=O)(=O)c3cc(F)c(-c4noc(C(C)(C)S(C)(=O)=O)n4)cc32)cc1 [Example 62, (3R)-3-amino-8-fluoro-5-[[4-(2-methoxy-1,1-dimethyl-ethoxy)phenyl]methyl]-7-[5-(1-methyl-1-methylsulfonyl-ethyl)-1,2,4-oxadiazol-3-yl]-1,1-dioxo-2,3-dihydro-benzothiazepin-4-one]
- Emax [1]: 188%
- EC50 [1]: 1390 nM
- IC50 [2]: 269 nM
- IC50 [3]: 1070 nM
